According to patent US20240382572A1, “COMBINATIONS OF CHECKPOINT INHIBITORS AND THERAPEUTICS TO TREAT CANCER” (Cognate Bioservices, Inc., priority 2013, published 2024):

Tests used:
GL261 murine glioma [1] = assay: Flow cytometry of tumor, lymph node and spleen harvests from GL261 glioma-bearing mice; assay type: in vivo, C57BL/6 mice
Method: Mice were intracranially implanted with GL261 murine glioma and then administered PBS (Ix) or lysate-pulsed DC vaccine subcutaneously on days 3 and 13 post-tumor implant. On day 16, 72 h after the second treatment, mice were euthanized and spleen, lymph, and brain hemispheres harvested for processing.
Spleen, lymph, and brain hemispheres harvested for processing on day 16 post-implant (72 h after second treatment).
Bone marrow-derived DC and vaccination. […] Briefly, bone marrow cells were cultured in a humidified atmosphere of 5% CO2 at 37° C. overnight in complete RPMI (Mediatech, Inc. Herndon, VA) (supplemented with 10% FBS, 1% (v/v) penicillin and streptomycin). The day following, nonadherent cells were collected and plated with murine interleukin-4 (IL-4, 400 IU/mL, R&D Systems, Minneapolis, MN) and murine granulocyte-macrophage colony stimulating factor (GM-CSF, 100 ng/mL, R&D Systems, Minneapolis, MN). On day 4, adherent cells were re-fed with fresh media with the same cytokines. On day 7, DCs were harvested and resuspended at 1×10^6 cells/ml in complete RPMI and pulsed with GL261 lysate (250 μg/mL). On day 8, DCs were collected and resuspended at 2×10^6 cells/mL in PBS Ix and immediately prepared for injection in 0.2 mL of cell suspension per mouse. Injections were given subcutaneously (s.c.) at 4 sites on the back.
Intracranial glioma implants. […]

GL261 murine glioma [2] = assay: Survival of mice with intracranial GL261 glioma; assay type: in vivo, C57BL/6 mice; conditions: mice with well-established intracranial GL261 glioma
PD-1 = target: T1, PD-1 (Homo sapiens, UniProt Q15116); conditions: phase II, DLBCL, cited from earlier work
T1 construct: host or cells: Trial subjects (patients); PD-1 is endogenous
T1 sequence (Q15116 25-288): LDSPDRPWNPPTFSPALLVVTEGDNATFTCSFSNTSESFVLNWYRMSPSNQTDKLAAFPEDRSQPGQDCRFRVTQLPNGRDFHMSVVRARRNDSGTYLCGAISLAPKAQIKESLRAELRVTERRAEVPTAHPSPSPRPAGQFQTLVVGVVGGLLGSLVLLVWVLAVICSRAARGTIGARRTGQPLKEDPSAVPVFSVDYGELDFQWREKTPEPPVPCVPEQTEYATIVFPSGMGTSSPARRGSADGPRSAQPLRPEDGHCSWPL

Compound	myeloid cells expressing PD-L1 (Thy1.2- Ly6C+ PD-L1+) in tumor (GL261 murine glioma [1])	activated tumor-infiltrating lymphocytes (CD3+ CD8+ CD25+) (GL261 murine glioma [1]; day 16 post-implant)	survival (GL261 murine glioma [2])	subjects alive (PD-1; preliminary results)	subjects progression-free at the end of the follow-up period (PD-1; preliminary results)	activity of natural killer cells (PD-1)
FC(F)(F)c1ccc(CNc2ccc(Cc3c[nH]c4ncc(Cl)cc34)cn2)cn1 [PLX3397]	absence of these Ly6C^+ PD-L1^+ cells	significant tumor-infiltrating population	entirely recovered survival benefit	–	–	–
CT-011: humanized IgG1 monoclonal antibody against PD-1	–	–	–	82%	70%	augments the activity of natural killer cells
